Assays:
[1] = molecular target: E. coli RNAP σ^70 holoenzyme (Escherichia coli, UniProt P0A8T7+P0A8V2); experiment: Fluorescence-detected RNAP-inhibition assay; type: biochemical
Mtb RNAP σ^A holoenzyme = Mtb RNAP σ^A holoenzyme (Mycobacterium tuberculosis, UniProt P9WGY7+P9WGY9); experiment: Fluorescence-detected RNAP-inhibition assay; type: biochemical
[2] = molecular target: S. aureus RNAP σ^A holoenzyme (Staphylococcus aureus, UniProt P47768+Q2G0N5); experiment: Fluorescence-detected RNAP-inhibition assay; type: biochemical; details: Fig. S5
E. coli D21f2tolC [3] = type: cell-based, Escherichia coli; details: for cross-resistance of E. coli Lpm-resistant mutants to the compound: chromosomal Lpm-resistant mutants of E. coli D21f2tolC, Fig. 2D; for MICwild-type: wild-type E. coli D21f2tolC, LB broth, 16 h at 37°C, growth inhibited by ≥90%
RNAP clamp = details: interactions with SW1 and opposite face of SW2; ref Chakraborty et al., 2012; cited from earlier work
[4] = in vivo; cited from earlier work
human RNAP I/II/III = experiment: Radiochemical RNAP-inhibition assay with HeLa nuclear extract; type: biochemical; details: Fig. S4C
E. coli D21f2tolC [5] = experiment: Checkerboard interaction assay; type: cell-based, Escherichia coli; details: combination of Lpm and Rif; checkerboard format; Fig. 2F
E. coli strain D21f2tolC = experiment: Colony formation on LB-agar plates containing Lpm; type: cell-based, Escherichia coli; details: 200 μg/ml ampicillin, 1 mM IPTG, 24-48 h at 37°C
[6] = molecular target: T. thermophilus RNAP σ^A holoenzyme (Thermus thermophilus, UniProt Q8RQE8+Q8RQE9); experiment: Fluorescence-detected RNAP-inhibition assay; type: biochemical
[7] = molecular target: E. coli RNAP σ^70 holoenzyme (Escherichia coli, UniProt P0A8T7+P0A8V2, D284F/E106F); experiment: Single-molecule FRET of RNAP clamp conformation; type: biochemical; details: 20 μM Lpm; Fig. 4E-F

| Compound | cross-resistance of E. coli Lpm-resistant mutants to the compound (E. coli D21f2tolC [3]) | MICwild-type (E. coli D21f2tolC [3]) [µg/mL] | also measured |
| --- | --- | --- | --- |
| 4"-O-benzyl-Lpm [a1] | – | – | potency in inhibiting Escherichia coli RNAP relative to Lpm ([1]; Fig. S5): equal to that of Lpm; potency in inhibiting Mtb RNAP relative to Lpm (Mtb RNAP σ^A holoenzyme): within approximately an order of magnitude of that of Lpm; potency in inhibiting S. aureus RNAP relative to Lpm [2]: within approximately an order of magnitude of that of Lpm |
| ONC(=Nc1ccccc1)c1cccc(C(F)(F)F)c1 [CBR, CBR703] | Absence of significant cross-resistance | 6.25 | – |
| C/C=C/C/C=C(\C)C(O)CC/C(C)=C/C=C(\C)C(=O)c1c(O)cc([C@H](C)CC/C=C/NC(=O)OC)oc1=O (some centres unmarked) [Cor, corallopyronin] | – | – | effect on RNAP clamp conformation (RNAP clamp): trap a closed-clamp state |
| CCc1c(Cl)c(O)c(Cl)c(O)c1C(=O)O[C@H]1[C@H](O)[C@H](OC)[C@H](OC/C2=C\C=C\C[C@H](O)/C(C)=C/[C@H](CC)[C@@H](O[C@@H]3OC(C)(C)[C@@H](OC(=O)C(C)C)[C@H](O)[C@@H]3O)/C(C)=C/C(C)=C/C[C@@H]([C@@H](C)O)OC2=O)O[C@@H]1C [Lpm, lipiarmycin A3] | – | 1.56 | IC50 [1]: 8 µM; systemic bioavailability [4]: no systemic bioavailability; ability to inhibit human RNAP I, II, and III (human RNAP I/II/III): not human RNAP I, II, and III; antibacterial interaction of Lpm and Rif when co-administered (E. coli D21f2tolC [5]): additive antibacterial activity; minimal concentration that prevents colony formation by wild-type transformants (E. coli strain D21f2tolC): 5 µg/mL; IC50 [6]: 200 µM; cross-resistance of E. coli Rif-, GE/PUM-, Sal-, CBR-, and Stl-resistant mutants to Lpm (E. coli D21f2tolC [3]; E. coli D21f2tolC derivatives, Fig. 2E): Absence of significant cross-resistance; effect on RNAP clamp conformation in solution [7]: traps the open-clamp state |
| NC(=O)CC[C@@H](C(=O)NC[C@H]1O[C@@H](c2c[nH]c(=O)[nH]c2=O)[C@H](O)[C@@H]1O)N(O)C(=O)CN=C(N)N [PUM, pseudoridimycin] | Absence of significant cross-resistance | 400 | – |
| CO[C@H]1/C=C/O[C@@]2(C)Oc3c(C)c(O)c4c(O)c(c(/C=N/N5CCN(C)CC5)c(O)c4c3C2=O)NC(=O)/C(C)=C\C=C\[C@H](C)[C@H](O)[C@@H](C)[C@@H](O)[C@@H](C)[C@H](OC(C)=O)[C@@H]1C [Rif, rifampin] | Absence of significant cross-resistance | 0.20 | – |
| C/C(=C\Cc1ccccc1)CCC(=O)C[C@H]1C[C@H](O)C/C(C)=C/C/C=C/C/C(CC(=O)O)=C\C(=O)O1 [Rip, ripostatin] | – | – | effect on RNAP clamp conformation (RNAP clamp): trap a closed-clamp state |
| CNC(=O)[C@@H](C)[C@H]1C(=O)/C(=C(O)/C=C/C(C)=C/[C@@H](C)[C@H]2O[C@@]3(C)O[C@H](C=C[C@@]34CO4)[C@@H]2C)C(=O)N1[C@@H]1CC[C@H](O)[C@H](C)O1 [Stl, streptolydigin] | Absence of significant cross-resistance | 3.13 | – |
| GE23077 | Absence of significant cross-resistance | 500 | – |
| myxopyronin | Absence of significant cross-resistance | 0.20 | effect on RNAP clamp conformation (RNAP clamp): trap a closed-clamp state |
| salinamide | Absence of significant cross-resistance | 0.049 | – |
